Test: xn = mol fraction of the nth substance listed

CC(=O)[O-].Cn1cc[n+](C)c1 + O
293.15 K, 101.3 kPa
Conditions	electrical conductivity [S/m]
x2 = 0	0.275
x2 = 0.0799	0.561
x2 = 0.1095	0.863
x2 = 0.2767	1.457
x2 = 0.4986	2.733
x2 = 0.5673	3.384
x2 = 0.7029	5.091
x2 = 0.7484	5.772
x2 = 0.8651	7.166
x2 = 0.8897	6.824
x2 = 0.9043	5.765
x2 = 0.9388	2.782
x2 = 0.9483	2
x2 = 0.9579	1.213
x2 = 0.9681	0.729

CC[n+]1ccn(C)c1.O=S(=O)([O-])C(F)(F)F + CN(C)C=O + OCCO
viscosity [mPa·s], 100 kPa
Conditions	298.15 K	303.15 K	308.15 K	313.15 K	318.15 K	323.15 K
x2 = 0.0208, x3 = 0.1868	29.3	24.8	21.15	18.23	15.83	13.8
x2 = 0.0306, x3 = 0.198	27.9	23.6	20.16	17.39	15.11	13.18
x2 = 0.0398, x3 = 0.2206	25.8	21.9	18.69	16.15	14.06	12.27
x2 = 0.0679, x3 = 0.2281	23.5	20	17.13	14.83	12.93	11.29
x2 = 0.0847, x3 = 0.2475	21.3	18.2	15.61	13.54	11.83	10.34
x2 = 0.1005, x3 = 0.2658	19.4	16.5	14.24	12.39	10.85	9.48
x2 = 0.1248, x3 = 0.2717	17.7	15.2	13.09	11.41	10.01	8.76
x2 = 0.1637, x3 = 0.2744	15.6	13.4	11.59	10.14	8.92	7.81
x2 = 0.1852, x3 = 0.2798	14.3	12.3	10.67	9.35	8.25	7.23
x2 = 0.2057, x3 = 0.2849	13.1	11.3	9.84	8.64	7.64	6.7
x2 = 0.2567, x3 = 0.2666	11.6	10.1	8.83	7.78	6.9	6.06
x2 = 0.3179, x3 = 0.2469	9.96	8.69	7.63	6.76	6.02	5.29
x2 = 0.3633, x3 = 0.2306	8.7	7.63	6.74	6	5.34	4.85
x2 = 0.4128, x3 = 0.2106	7.83	6.89	6.11	5.45	4.89	4.31
x2 = 0.469, x3 = 0.1967	6.48	5.75	5.13	4.61	4.16	3.68
x2 = 0.5074, x3 = 0.1828	5.85	5.22	4.68	4.22	3.85	3.19
x2 = 0.5624, x3 = 0.1668	4.75	4.27	3.86	3.51	3.19	2.84
x2 = 0.6135, x3 = 0.152	3.92	3.55	3.24	2.96	2.71	2.43
x2 = 0.6611, x3 = 0.1382	3.32	3.02	2.76	2.53	2.32	2.15
x2 = 0.7126, x3 = 0.1243	2.61	2.41	2.23	2.07	1.92	1.74
x2 = 0.7536, x3 = 0.1124	2.33	2.14	1.98	1.83	1.7	1.58
x2 = 0.7982, x3 = 0.1005	1.83	1.7	1.59	1.49	1.4	1.29
x2 = 0.8449, x3 = 0.0889	1.53	1.42	1.33	1.24	1.17	1.09
x2 = 0.8948, x3 = 0.0712	1.22	1.14	1.07	1.01	0.95	0.89

CC[n+]1ccn(C)c1.O=S(=O)([O-])C(F)(F)F + O=S(=O)([N-]S(=O)(=O)C(F)(F)F)C(F)(F)F.[Li+]
101 kPa, x1 = 1
Conditions	electrical conductivity [S/m]
288.15 K	0.605
298.15 K	0.859
333.15 K	2.24

II + CCCC[n+]1ccn(C)c1.[I-]
Conditions	electrical conductivity [S/m]
298 K, 101.3 kPa, x2 = 0.333	3.07

O=C(O)CC(O)C(=O)O (stereo not drawn) + CCCC[N+](CCCC)(CCCC)CCCC.[Cl-] + O
100 kPa, x2 = 0.1428, x1 = 0.1428
Conditions	electrical conductivity [S/m]	viscosity [mPa·s]
293.15 K	0.0722	283
303.15 K	0.113	191
313.15 K	0.173	133
323.15 K	0.257	94
333.15 K	0.373	68.1

CCCCCCCCCCCCCC[P+](CCCCCC)(CCCCCC)CCCCCC.N#C[N-]C#N + CCCCCCCCCCCC
101 kPa
Conditions	viscosity [mPa·s]
303.15 K, x1 = 1	328
308.15 K, x1 = 0.5534	90
313.15 K, x1 = 0.736	112
323.15 K, x1 = 0.5534	47.4
323.15 K, x1 = 0.736	72.7
323.15 K, x1 = 1	123
328.15 K, x1 = 0.5534	39.2
328.15 K, x1 = 0.736	60
343.15 K, x1 = 0.5534	24.2
353.15 K, x1 = 1	41

Reference: the CheMixHub ionic liquid set
